Data set [1] is described as follows: Aqueous solubility determination (suspension equilibration for three days, HPLC). Particulars: pure water, 25±2° C. (ambient temperature), about three days of suspension equilibration, filtered solution. In kind it is physicochemical. The method, then: The aqueous solubility of Deferasirox free drug substance and the multicomponent crystalline system of the present invention (Deferasirox-Isonicotinamide co-crystal) was determined in water at ambient temperature after about three days of suspension equilibration using HPLC for the determination of the concentration in the filtered solution.
Solubility determinations were carried out in pure water at 25±2° C. Suspensions with about 50 mg the solid form, either the co-crystal of the present invention or deferasirox free drug substance in 7 mL water were prepared an equilibrated for three days before the solution phase was filtered off and tested by HPLC.
HPLC was carried out on an Agilent 1100 HPLC chromatograph equipped with a UV-vis detection unit. The column type used was a Waters XTerra MS C18, 100×4.6 mm, 5 μm (FK-CC01F). […]
882 mg of Deferasirox and 290 mg of isonicotinamide are dissolved in a mixture of 15 ml acetone and 3 ml THF by shortly heating to reflux temperature. […] Then suspension is filtered and the concentration in the solution determined by HPLC. […]

A short description of data set [2]: Dynamic water vapor adsorption measurements (DVS). It is filed as physicochemical. Particulars: water vapor sorption. An excerpt: It is known that the anhydrous form A of Deferasirox converts to a hydrate form upon exposure to high relative humidity, therefore anhydrous Deferasirox is hygroscopic. The multicomponent crystalline system described here is characterized in that it has good hygroscopic properties, i.e. absorb little water at high relative humidity. This is evident from table 1 below, which compares the water contents of the multicomponent crystalline system and Deferasirox free drug substance at 50% and 95% relative humidity. The data originate from dynamic water vapor adsorption measurements. The water vapor sorption measurement is a suitable method for investigating the hygroscopic properties of solid substances. Water vapor sorption measurements can be carried out in different ways. In general, in this connection, a small sample of ca. 10-30 mg is introduced into a microbalance in a suitable sample carrier. The sample is then exposed to different relative humidities in accordance with a defined program, the change in the sample mass being simultaneously recorded over the time. […]
Dynamic water vapor adsorption measurements were carried out using an SPS11 100 n instrument, manufactured by “Projekt Messtechnik” in Ulm, Germany. […] The sample was then subjected to preselected relative humidities in accordance with a defined program, the change in mass being determined over the time. […]

Compound `O=C(O)c1ccc(-n2nc(-c3ccccc3O)nc2-c2ccccc2O)cc1` [Deferasirox free drug substance, 4-[3,5-bis(2-hydroxyphenyl)-1H-1,2,4-triazol-1-yl]benzoic acid] returned a solubility (thermodynamic) at 3 days in data set [1] of less than 1 µg/mL. Moreover, in data set [2] (50% relative humidity), the “H2O content at 50% r.h.” value stood at 0.5%. In data set [2] (95% relative humidity), the “H2O content at 95% r.h.” value worked out at 3.6%.

As usually defined, the solubility (thermodynamic) is the concentration in solution at equilibrium with solid.

For the origin of these results see patent US9290452B2, “Multicomponent crystalline system comprising deferasirox and isonicotinamide and a process for the preparation thereof” (BASF SE, priority 2012, dated 2016).
